Assay results reported in ChEMBL document CHEMBL1144058, “Pikuroside: a novel iridoid from Picrorhiza kurroa” (1999).

Organism: Mus musculus
Assay: Antiinflammatory activity against croton oil-induced ear swelling in BALB/c mouse after 6 hrs
Type: functional

Structure (SMILES): COc1cc(C(=O)O[C@H]2[C@@H]3C=CO[C@@H](O[C@@H]4O[C@H](CO)[C@@H](O)[C@H](O)[C@H]4O)[C@@H]3[C@@]3(CO)O[C@@H]23)ccc1O [PICROSIDE II]
- Activity: 46%
